Reference: patent US11661397B2, “1,4-disubstituted imidazole derivative” (Sumitomo Pharma Co., Ltd., priority 2015, dated 2023)
“And” between values parts separate entries of the source, which are not always exact repeats. Equal values may be shown once.

Tests used:
HCT-116 cells [1] = assay: Test for inhibiting sphere-forming ability of cancer cells in the presence of BSA (Test Example 2); assay type: cell-based; details: Homo sapiens, 96 h; HCT-116 spheres, 5% bovine serum albumin (BSA), 4 days, CellTiter-Glo; read-out: Sphere IC50 value (concentration for 50% inhibition of cell proliferation)
Experimental: (§1) HCT-116 cells were available from the American Type Culture Collection (ATCC). HCT-116 cells were cultured at 37° C. and 5% CO2 using the McCoy's 5a medium containing 10% fetal bovine serum (FBS) and 1% penicillin/streptomycin. […] The test compounds were added into each well to adjust the final concentration of DMSO to 0.1%, and the cells were cultured for 4 days.

[2] = system: HCT-116 tumor-bearing mouse; assay: Anti-tumor effect to HCT-116 tumor-bearing mouse (Test Example 4); assay type: in vivo; details: nude mouse, oral
Description: The present compound can be used to evaluate the anti-tumor effect thereof. A 4 to 7-week-old nude mouse (BALB/cAnNCrj-nu/nu, female, CHARLES RIVER LABORATORIES JAPAN, INC.) received intradermal transplantation of HCT-116 cells (ATCC) in an amount of 3×10^6 cells/mouse around the ventral portion. The engraftment of HCT-116 cells was observed 5 to 14 days after the transplantation, and then each compound suspended in a solvent such as 0.5% methylcellulose solution was orally administrated to the mouse in a dose of 1 to 100 mg/kg one to twice daily. The tumor volume was measured over time after the administration to evaluate the effect for reducing the tumor volume by the administration of each compound. The tumor volume can be calculated from the minor axis and the major axis of the tumor measured with a digital caliper (Mitutoyo) according to the following formula: Tumor volume [mm^3]=0.5×minor axis [mm]×(major axis [mm])^2
The tumor volume in control administration group treated with only a solvent such as 0.5% methylcellulose solution was compared with that of the present compound administration group, and T/C value was calculated according the following formula to evaluate the anti-tumor effect of the present compound. T/C (%)=(the tumor volume at the end of administration in the present compound administration group−the tumor volume at the start of administration in the present compound administration group)/(the tumor volume at the end of administration in the control administration group−the tumor volume at the start of administration in the […] administration group)×100
The T/C values (%) of the present compound on each dosage and administration period in the HCT-116 tumor-bearing mouse are shown below.

HCT-116 cells [3] = assay: Inhibition of sphere-forming ability of cancer cells (Test Example 1); assay type: cell-based; details: Homo sapiens, 96 h; HCT-116 spheres, non-adherent, serum-free, 4 days, CellTiter-Glo; read-out: Sphere IC50 value (concentration for 50% inhibition of cell proliferation)
Experimental: as §1

[4] = dosage 30 mg/kg, administration period 17 days
[5] = dosage 100 mg/kg, administration period 17 days

Row | SMILES | IC50 (HCT-116 cells [1]) | IC50 (HCT-116 cells [3]) | T/C (%) ([2]; dosage 100 mg/kg, administration period 16 days) | T/C (%) [2, 4] | T/C (%) [2, 5]
1 | O=C(Nc1cn(Cc2cccc(C(F)(F)F)c2)cn1)c1ccc(CO)nc1 [Example 12, 6-(hydroxymethyl)-N-{1-[3-(trifluoromethyl)benzyl]-1H-imidazol-4-yl}nicotinamide] | 60 nM | < 10 nM | 49% | – | –
2 | O=C(Nc1cn(Cc2cc(F)c(F)c(F)c2)cn1)c1cnc(CO)c(C(F)F)c1 [Example 18, 5-(difluoromethyl)-6-(hydroxymethyl)-N-[1-(3,4,5-trifluorobenzyl)-1H-imidazol-4-yl]nicotinamide] | 53 nM | < 10 nM | – | 63% | 54%
3 | Cc1cc(C(=O)Nc2cn(Cc3cc(F)c(F)c(F)c3)cn2)cnc1CO [Example 39, 6-(hydroxymethyl)-5-methyl-N-[1-(3,4,5-trifluorobenzyl)-1H-imidazol-4-yl]nicotinamide] | < 10 nM | < 10 nM | – | 79% | 65%
4 | Nc1cc(C(=O)Nc2cn(Cc3cccc(C(F)(F)F)c3)cn2)cnc1CO [Example 45, 5-Amino-6-(hydroxymethyl)-N-{1-[3-(trifluoromethyl)benzyl]-1H-imidazol-4-yl}nicotinamide] | 59 nM | 29 nM | – | 90% and 91% | 81%
5 | Nc1cc(C(=O)Nc2cn(Cc3cc(F)c(F)c(F)c3)cn2)cnc1CO [Example 46, 5-Amino-6-(hydroxymethyl)-N-[1-(3,4,5-trifluorobenzyl)-1H-imidazol-4-yl]nicotinamide] | 57 nM | 10 nM | – | – | 91%
6 | O=C(Nc1cn(Cc2cccc(Br)c2)cn1)c1cnc(CO)c(C(F)F)c1 [Example 58, N-[1-(3-bromobenzyl)-1H-imidazol-4-yl]-5-(difluoromethyl)-6-(hydroxymethyl)nicotinamide] | 80 nM | 70 nM | – | – | –
7 | O=C(Nc1cn(Cc2cc(Cl)cc(Cl)c2)cn1)c1cnc(CO)c(C(F)F)c1 [Example 75, N-[1-(3,5-dichlorobenzyl)-1H-imidazol-4-yl]-5-(difluoromethyl)-6-(hydroxymethyl)nicotinamide] | 50 nM | < 10 nM | – | – | –
8 | O=C(Nc1cn(Cc2cc(F)cc(Br)c2)cn1)c1cnc(CO)c(C(F)F)c1 [Example 76, N-[1-(3-bromo-5-fluorobenzyl)-1H-imidazol-4-yl]-5-(difluoromethyl)-6-(hydroxymethyl)nicotinamide] | 60 nM | 50 nM | – | – | –
9 | O=C(Nc1cn(Cc2cc(F)cc(Cl)c2)cn1)c1cnc(CO)c(C(F)F)c1 [Example 78, N-[1-(3-chloro-5-fluorobenzyl)-1H-imidazol-4-yl]-5-(difluoromethyl)-6-(hydroxymethyl)nicotinamide] | 60 nM | 50 nM | – | – | –
10 | O=C(Nc1cn(Cc2cc(F)cc(F)c2)cn1)c1cnc(CO)c(C(F)F)c1 [Example 79, N-[1-(3,5-difluorobenzyl)-1H-imidazol-4-yl]-5-(difluoromethyl)-6-(hydroxymethyl)nicotinamide] | 60 nM | 80 nM | – | – | –
11 | O=C(Nc1cn(Cc2cc(F)c(F)c(F)c2)cn1)c1ccc(CO)nn1 [Example 85, 6-(Hydroxymethyl)-N-[1-(3,4,5-trifluorobenzyl)-1H-imidazol-4-yl]pyridazine-3-carboxamide] | 30 nM | 20 nM | – | – | –

The next lines start with results.

Row | IC50 (HCT-116 cells [1]) | IC50 (HCT-116 cells [3]) | SMILES | T/C (%) ([2]; dosage 100 mg/kg, administration period 16 days) | T/C (%) [2, 4] | T/C (%) [2, 5]
12 | 57 nM | < 10 nM | O=C(Nc1cn(Cc2cccc(C(F)(F)F)c2)cn1)c1cnc(CO)c(C(F)F)c1 [Example 17, 5-(difluoromethyl)-6-(hydroxymethyl)-N-{1-[3-(trifluoromethyl)benzyl]-1H-imidazol-4-yl}nicotinamide] | – | 74% | 75%
13 | 50 nM | < 10 nM | O=C(Nc1cn(Cc2ccc(F)c(C(F)(F)F)c2)cn1)c1cnc(CO)c(C(F)F)c1 [Example 57, 5-(difluoromethyl)-N-{1-[4-fluoro-3-(trifluoromethyl)benzyl]-1H-imidazol-4-yl}-6-(hydroxymethyl)nicotinamide] | – | – | –
14 | 60 nM | 30 nM | O=C(Nc1cn(Cc2cc(F)cc(C(F)(F)F)c2)cn1)c1cnc(CO)c(C(F)F)c1 [Example 60, 5-(difluoromethyl)-N-{1-[3-fluoro-5-(trifluoromethyl)benzyl]-1H-imidazol-4-yl}-6-(hydroxymethyl)nicotinamide] | – | – | –
15 | 30 nM | < 10 nM | O=C(Nc1cn(Cc2ccc(F)c(Cl)c2)cn1)c1cnc(CO)c(C(F)F)c1 [Example 61, N-[1-(3-chloro-4-fluorobenzyl)-1H-imidazol-4-yl]-5-(difluoromethyl)-6-(hydroxymethyl)nicotinamide] | – | – | –
16 | 50 nM | < 10 nM | O=C(Nc1cn(Cc2ccc(F)c(Br)c2)cn1)c1cnc(CO)c(C(F)F)c1 [Example 62, N-[1-(3-bromo-4-fluorobenzyl)-1H-imidazol-4-yl]-5-(difluoromethyl)-6-(hydroxymethyl)nicotinamide] | – | – | –
17 | 600 nM | 690 nM | Cc1cccc(Cn2cnc(NC(=O)c3cnc(CO)c(C(F)F)c3)c2)c1 [Example 63, 5-(difluoromethyl)-6-(hydroxymethyl)-N-[1-(3-methylbenzyl)-1H-imidazol-4-yl]nicotinamide] | – | – | –
18 | 660 nM | 630 nM | COc1cc(Cn2cnc(NC(=O)c3cnc(CO)c(C(F)F)c3)c2)cc(C(F)(F)F)c1 [Example 65, 5-(difluoromethyl)-6-(hydroxymethyl)-N-{1-[3-methoxy-5-(trifluoromethyl)benzyl]-1H-imidazol-4-yl}nicotinamide] | – | – | –
19 | 60 nM | 70 nM | O=C(Nc1cn(Cc2ccc(Cl)c(F)c2)cn1)c1cnc(CO)c(C(F)F)c1 [Example 66, N-[1-(4-chloro-3-fluorobenzyl)-1H-imidazol-4-yl]-5-(difluoromethyl)-6-(hydroxymethyl)nicotinamide] | – | – | –
20 | 70 nM | 40 nM | O=C(Nc1cn(Cc2ccc(Br)c(F)c2)cn1)c1cnc(CO)c(C(F)F)c1 [Example 67, N-[1-(4-bromo-3-fluorobenzyl)-1H-imidazol-4-yl]-5-(difluoromethyl)-6-(hydroxymethyl)nicotinamide] | – | – | –
21 | 60 nM | < 10 nM | Cc1ccc(Cn2cnc(NC(=O)c3cnc(CO)c(C(F)F)c3)c2)cc1C(F)(F)F [Example 70, 5-(difluoromethyl)-6-(hydroxymethyl)-N-{1-[4-methyl-3-(trifluoromethyl)benzyl]-1H-imidazol-4-yl}nicotinamide] | – | – | –
22 | 60 nM | < 10 nM | O=C(Nc1cn(Cc2ccc(Cl)c(Cl)c2)cn1)c1cnc(CO)c(C(F)F)c1 [Example 71, N-[1-(3,4-dichlorobenzyl)-1H-imidazol-4-yl]-5-(difluoromethyl)-6-(hydroxymethyl)nicotinamide] | – | – | –
23 | 670 nM | 380 nM | O=C(Nc1cn(Cc2ccc(C(F)(F)F)c(F)c2)cn1)c1cnc(CO)c(C(F)F)c1 [Example 74, 5-(difluoromethyl)-N-{1-[3-fluoro-4-(trifluoromethyl)benzyl]-1H-imidazol-4-yl}-6-(hydroxymethyl)nicotinamide] | – | – | –
